Reference: patent US20240336602A1 (Katholieke Universiteit Leuven, priority 2020, published 2024)

The compounds below were run against T1, mouse TRPM3a2 (mTRPM3) ion channel (Mus musculus, UniProt J9SQF3) (assay: TRPM3 ion channel driven Ca2+ uptake, Fluo-4 AM assay (PS-stimulated, overexpressing flip-in HEK293 cells)). Conditions: PS (50 μM) stimulated Ca2+ influx, HEK293, cpds 200-299.
T1 construct: expressed in transfected cells; host or cells: flip-in HEK293
Type: cell-based
Method in brief: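 Flip-in HEK293 cells overexpressing mTRPM3α2, loaded with Fluo-4 AM, were added to wells with compound plus 50 μM pregnenolone sulfate in Ca2+-containing Krebs buffer and read immediately (ex 485/em 535 nm). Percent inhibition was scaled between PS-plus-vehicle and positive-control-inhibitor signals.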

T1 sequence (J9SQF3 1-1709 isoform J9SQF3-12): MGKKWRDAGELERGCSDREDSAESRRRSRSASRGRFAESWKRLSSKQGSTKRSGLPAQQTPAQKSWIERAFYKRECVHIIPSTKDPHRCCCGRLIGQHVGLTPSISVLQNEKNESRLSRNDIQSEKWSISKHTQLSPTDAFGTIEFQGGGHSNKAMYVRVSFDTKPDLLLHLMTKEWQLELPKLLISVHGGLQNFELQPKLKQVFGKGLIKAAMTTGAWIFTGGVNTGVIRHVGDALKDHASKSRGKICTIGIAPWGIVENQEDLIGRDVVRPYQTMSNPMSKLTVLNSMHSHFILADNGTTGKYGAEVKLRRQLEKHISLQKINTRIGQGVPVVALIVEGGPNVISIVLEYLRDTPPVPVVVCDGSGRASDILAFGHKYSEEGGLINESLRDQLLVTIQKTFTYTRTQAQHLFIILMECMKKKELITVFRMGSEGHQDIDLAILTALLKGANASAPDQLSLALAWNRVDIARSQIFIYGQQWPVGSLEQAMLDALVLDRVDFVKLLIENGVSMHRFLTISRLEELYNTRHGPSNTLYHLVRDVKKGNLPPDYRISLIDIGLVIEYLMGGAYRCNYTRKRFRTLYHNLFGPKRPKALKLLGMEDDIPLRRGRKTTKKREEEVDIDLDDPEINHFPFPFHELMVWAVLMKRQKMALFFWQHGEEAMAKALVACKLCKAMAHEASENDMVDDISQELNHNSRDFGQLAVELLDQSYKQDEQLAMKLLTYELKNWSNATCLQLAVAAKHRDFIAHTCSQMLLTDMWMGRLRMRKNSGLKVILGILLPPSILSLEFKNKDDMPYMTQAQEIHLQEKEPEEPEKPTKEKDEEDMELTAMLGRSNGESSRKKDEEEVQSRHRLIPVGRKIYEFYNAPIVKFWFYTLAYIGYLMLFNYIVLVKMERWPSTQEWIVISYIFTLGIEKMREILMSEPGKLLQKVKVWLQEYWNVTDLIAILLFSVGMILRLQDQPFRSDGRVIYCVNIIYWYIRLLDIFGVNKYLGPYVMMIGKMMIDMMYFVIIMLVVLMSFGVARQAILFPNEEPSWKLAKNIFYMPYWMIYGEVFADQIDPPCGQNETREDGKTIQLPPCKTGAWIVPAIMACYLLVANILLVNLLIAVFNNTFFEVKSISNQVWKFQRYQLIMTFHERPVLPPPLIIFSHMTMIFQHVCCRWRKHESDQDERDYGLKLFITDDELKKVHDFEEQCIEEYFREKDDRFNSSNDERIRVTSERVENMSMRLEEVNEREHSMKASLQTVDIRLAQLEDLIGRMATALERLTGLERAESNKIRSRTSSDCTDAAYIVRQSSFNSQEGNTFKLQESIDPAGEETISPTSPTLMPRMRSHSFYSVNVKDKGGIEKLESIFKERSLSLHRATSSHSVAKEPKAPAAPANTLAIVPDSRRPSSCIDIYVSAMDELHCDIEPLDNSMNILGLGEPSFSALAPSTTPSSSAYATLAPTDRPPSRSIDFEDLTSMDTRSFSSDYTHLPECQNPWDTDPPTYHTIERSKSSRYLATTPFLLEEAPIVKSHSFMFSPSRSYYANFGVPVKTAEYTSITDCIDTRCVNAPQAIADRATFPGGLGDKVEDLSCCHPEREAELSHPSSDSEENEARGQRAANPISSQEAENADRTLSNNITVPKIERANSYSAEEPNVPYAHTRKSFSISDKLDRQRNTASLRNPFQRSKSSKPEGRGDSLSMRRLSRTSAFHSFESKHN

SMILES | IC50 [µM]
Cc1ncsc1COc1ccc2oc(C)c(C(=O)NC3(CO)CNC3)c2c1 [compound 201, N-(3-(hydroxymethyl)azetidin-3-yl)-2-methyl-5-((4-methylthiazol-5-yl)methoxy)benzofuran-3-carboxamide] | 1 to 20
Cc1oc2ccc(OCc3cccnc3C(F)(F)F)cc2c1C(=O)NC1(CO)CNC1 [compound 202, N-(3-(hydroxymethyl)azetidin-3-yl)-2-methyl-5-((2-(trifluoromethyl)pyridin-3-yl)methoxy)benzo-furan-3-carboxamide] | 1 to 20

Same assay, conditions: PS (50 μM) stimulated Ca2+ influx, HEK293, cpds 300-399

SMILES | IC50 [µM]
Cc1oc2ccc(OCc3cccnc3O)c(F)c2c1C(=O)NC1(CO)CCOCC1 [compound 329, 4-fluoro-N-(4-(hydroxymethyl)tetrahydro-2H-pyran-4-yl)-2-methyl-5-((2-oxo-1,2-dihydropyridin-3-yl)methoxy)benzofuran-3-carboxamide] | 1 to 20

Same assay, conditions: PS (50 μM) stimulated, cpd 001-199

IC50 [µM] | SMILES
1 to 20 | Cc1oc2ccc(OCC3CCOCC3)cc2c1C(=O)O [cpd 015, 2-methyl-5-((tetrahydro-2H-pyran-4-yl)methoxy)benzofuran-3-carboxylic acid]
1 to 20 | Cc1oc2ccc(OCc3ccc(C(F)(F)F)o3)cc2c1C(=O)O [cpd 018, 2-methyl-5-((5-(trifluoromethyl)furan-2-yl)methoxy)benzofuran-3-carboxylic acid]
1 to 20 | Cc1oc2ccc(OCc3cnco3)cc2c1C(=O)N[C@H]1CCNC1 [cpd 020, (S)-2-methyl-5-(oxazol-5-ylmethoxy)-N-(pyrrolidin-3-yl)benzofuran-3-carboxamide]
1 to 20 | Cc1oc2ccc(OCc3ccncc3)cc2c1C(=O)N[C@H]1CCNC1 [cpd 021, (S)-2-methyl-5-(pyridin-4-ylmethoxy)-N-(pyrrolidin-3-yl)benzofuran-3-carboxamide]
1 to 20 | Cc1oc2ccc(OCc3ccn(C)n3)cc2c1C(=O)N[C@H]1CCNC1 [cpd 023, (S)-2-methyl-5-((1-methyl-1H-pyrazol-3-yl)methoxy)-N-(pyrrolidin-3-yl)benzofuran-3-carboxamide]
1 to 20 | Cc1oc2ccc(OCc3cnccn3)cc2c1C(=O)NC1CCNC1=O (centres unmarked) [cpd 031, 2-methyl-N-(2-oxopyrrolidin-3-yl)-5-(pyrazin-2-ylmethoxy)benzofuran-3-carboxamide]
1 to 20 | Cc1oc2ccc(OCc3cncnc3)cc2c1C(=O)NC1CCNC1=O (centres unmarked) [cpd 032, 2-methyl-N-(2-oxopyrrolidin-3-yl)-5-(pyrimidin-5-ylmethoxy)benzofuran-3-carboxamide]
1 to 20 | Cc1ccncc1COc1ccc2oc(C)c(C(=O)NC3CCOC3)c2c1 (centres unmarked) [cpd 034, 2-methyl-5-((4-methylpyridin-3-yl)methoxy)-N-(tetrahydrofuran-3-yl)benzofuran-3-carboxamide]
1 to 20 | Cc1ccncc1COc1ccc2oc(C)c(C(=O)NC3CCNC3=O)c2c1 (centres unmarked) [cpd 037, 2-methyl-5-((4-methylpyridin-3-yl)methoxy)-N-(2-oxopyrrolidin-3-yl)benzofuran-3-carboxamide]
1 to 20 | Cc1oc2ccc(OCc3ccccn3)cc2c1C(=O)NC1CCN(C)CC1 [cpd 039, 2-methyl-N-(1-methylpiperidin-4-yl)-5-(pyridin-2-ylmethoxy)benzofuran-3-carboxamide]
1 to 20 | Cc1ccc(COc2ccc3oc(C)c(C(=O)NC4CCNC4=O)c3c2)c(C)n1 (centres unmarked) [cpd 044, 5-((2,6-dimethylpyridin-3-yl)methoxy)-2-methyl-N-(2-oxopyrrolidin-3-yl)benzofuran-3-carboxamide]
1 to 20 | Cc1oc2ccc(OC(C)c3ccncc3)cc2c1C(=O)NC1CCN(C)CC1 (centres unmarked) [cpd 045, 2-methyl-N-(1-methylpiperidin-4-yl)-5-(1-(pyridin-4-yl)ethoxy)benzofuran-3-carboxamide]
≤ 1 | Cc1oc2ccc(OCc3nccs3)cc2c1C(=O)NC1CCNCC1(F)F (centres unmarked) [cpd 050, N-(3,3-difluoropiperidin-4-yl)-2-methyl-5-(thiazol-2-ylmethoxy)benzofuran-3-carboxamide]
1 to 20 | Cc1ccncc1COc1ccc2oc(C)c(C(=O)NC3(CO)CCOCC3)c2c1 [cpd 052, N-(4-(hydroxymethyl)tetrahydro-2H-pyran-4-yl)-2-methyl-5-((4-methylpyridin-3-yl)methoxy)-benzofuran-3-carboxamide]
1 to 20 | Cc1cccnc1COc1ccc2oc(C)c(C(=O)NC3CCNCC3(F)F)c2c1 (centres unmarked) [cpd 053, N-(3,3-difluoropiperidin-4-yl)-2-methyl-5-((3-methylpyridin-2-yl)methoxy)benzofuran-3-carboxamide]
1 to 20 | Cc1oc2ccc(OCc3nccc4ccccc34)cc2c1C(=O)NC1CCN(C)CC1 [cpd 059, 5-(isoquinolin-1-ylmethoxy)-2-methyl-N-(1-methylpiperidin-4-yl)benzofuran-3-carboxamide]
1 to 20 | Cc1oc2ccc(OCc3cccc4cnccc34)cc2c1C(=O)NC1CCN(C)CC1 [cpd 060, 5-(isoquinolin-5-ylmethoxy)-2-methyl-N-(1-methylpiperidin-4-yl)benzofuran-3-carboxamide]
≤ 1 | COc1ncccc1COc1ccc2oc(C)c(C(=O)NC3CCNCC3(F)F)c2c1 (centres unmarked) [cpd 062, N-(3,3-difluoropiperidin-4-yl)-5-((2-methoxypyridin-3-yl)methoxy)-2-methylbenzofuran-3-carboxamide]

Continued, compound first:

SMILES | IC50 [µM]
Cc1oc2ccc(OCc3nccs3)cc2c1C(=O)NC1CCNC1=O (centres unmarked) [compound 036, 2-methyl-N-(2-oxopyrrolidin-3-yl)-5-(thiazol-2-ylmethoxy)benzofuran-3-carboxamide] | ≤ 1
COc1ncccc1COc1ccc2oc(C)c(C(=O)NC3CCNC3=O)c2c1 (centres unmarked) [compound 046, 5-((2-methoxypyridin-3-yl)methoxy)-2-methyl-N-(2-oxopyrrolidin-3-yl)benzofuran-3-carboxamide] | ≤ 1
Cc1ncsc1COc1cc(F)c2oc(C)c(C(=O)NC3(CO)CCOCC3)c2c1 [compound 122, 7-fluoro-N-(4-(hydroxymethyl)tetrahydro-2H-pyran-4-yl)-2-methyl-5-((4-methylthiazol-5-yl)-methoxy)benzofuran-3-carboxamide] | 1 to 20
Cc1cc2oc(C)c(C(=O)NC3(CO)CCOCC3)c2cc1OCc1scnc1C [compound 185, N-(4-(hydroxymethyl)tetrahydro-2H-pyran-4-yl)-2,6-dimethyl-5-((4-methylthiazol-5-yl)methoxy)-benzofuran-3-carboxamide] | 1 to 20
Cc1ncsc1COc1cc(C)c2oc(C)c(C(=O)NC3(CO)CCOCC3)c2c1 [compound 186, N-(4-(hydroxymethyl)tetrahydro-2H-pyran-4-yl)-2,7-dimethyl-5-((4-methylthiazol-5-yl)methoxy)benzofuran-3-carboxamide] | 1 to 20
Cc1ncsc1COc1cc(C#N)c2oc(C)c(C(=O)NC3(CO)CCOCC3)c2c1 [compound 188, 7-cyano-N-(4-(hydroxymethyl)tetrahydro-2H-pyran-4-yl)-2-methyl-5-((4-methylthiazol-5-yl)methoxy)benzofuran-3-carboxamide] | 1 to 20
Cc1oc2ccc(OCc3ccoc3)cc2c1C(=O)O [cpd 001, 5-(furan-3-ylmethoxy)-2-methylbenzofuran-3-carboxylic acid] | 1 to 20
Cc1oc2ccc(OCc3cnco3)cc2c1C(=O)O [cpd 002, 2-methyl-5-(oxazol-5-ylmethoxy)benzofuran-3-carboxylic acid] | ≥ 20
Cc1oc2ccc(OCc3ccccn3)cc2c1C(=O)O [cpd 005, 2-methyl-5-(pyridin-2-ylmethoxy)benzofuran-3-carboxylic acid] | 1 to 20
Cc1oc2ccc(OCc3cccnc3)cc2c1C(=O)O [cpd 006, 2-methyl-5-(pyridin-3-ylmethoxy)benzofuran-3-carboxylic acid] | 1 to 20
Cc1oc2ccc(OCc3cccnn3)cc2c1C(=O)O [cpd 007, 2-methyl-5-(pyridazin-3-ylmethoxy)benzofuran-3-carboxylic acid] | 1 to 20
Cc1oc2ccc(OCc3ccn(C)n3)cc2c1C(=O)O [cpd 009, 2-methyl-5-((1-methyl-1H-pyrazol-3-yl)methoxy)benzofuran-3-carboxylic acid] | 1 to 20
Cc1oc2ccc(OCc3cnn(C)c3)cc2c1C(=O)O [cpd 010, 2-methyl-5-((1-methyl-1H-pyrazol-4-yl)methoxy)benzofuran-3-carboxylic acid] | 1 to 20
Cc1oc2ccc(OCc3ccsc3)cc2c1C(=O)O [cpd 011, 2-methyl-5-(thiophen-3-ylmethoxy)benzofuran-3-carboxylic acid] | 1 to 20
Cc1oc2ccc(OCc3cccs3)cc2c1C(=O)O [cpd 012, 2-methyl-5-(thiophen-2-ylmethoxy)benzofuran-3-carboxylic acid] | 1 to 20
Cc1oc2ccc(OCc3nccs3)cc2c1C(=O)O [cpd 013, 2-methyl-5-(thiazol-2-ylmethoxy)benzofuran-3-carboxylic acid] | 1 to 20
Cc1oc2ccc(OCc3cncs3)cc2c1C(=O)O [cpd 014, 2-methyl-5-(thiazol-5-ylmethoxy)benzofuran-3-carboxylic acid] | 1 to 20

Same assay, conditions: PS (50 μM) stimulated, cpds. 500-599

SMILES | IC50 [µM]
Cc1ncsc1COc1ccc2oc(C)c(C(=O)N(C)C3(C(N)=O)COC3)c2c1 [compound 589, N-(3-carbamoyloxetan-3-yl)-N,2-dimethyl-5-((4-methylthiazol-5-yl)methoxy)benzofuran-3-carboxamide] | ≤ 1
Cc1ncsc1COc1ccc2oc(C)c(C(=O)N(C)C3(C#N)COC3)c2c1 [compound 599, N-(3-cyanooxetan-3-yl)-N,2-dimethyl-5-((4-methylthiazol-5-yl)methoxy)benzofuran-3-carboxamide] | 1 to 20

Same assay, conditions: PS (50 μM) stimulated, cpds. 600-666

SMILES | IC50 [µM]
Cc1oc2ccc(OCc3nccn3C)cc2c1C(=O)NC1COCC1O (centres unmarked) [654 - En 2] | 1 to 20
